Measured values from ChEMBL document CHEMBL1157177, “Trivalent, Gal/GalNAc-containing ligands designed for the asialoglycoprotein receptor” (Bioorg Med Chem, 2008).

Test: Displacement of [125I]asialoorosomucoid from ASGP receptor

Compound	Ki [nM]
CC(=O)N[C@H]1[C@H](OCCOCCOCCNC(=O)CCOCC(COCCC(=O)NCCOCCOCCO[C@@H]2O[C@H](CO)[C@H](O)[C@H](O)[C@H]2NC(C)=O)(COCCC(=O)NCCOCCOCCO[C@@H]2O[C@H](CO)[C@H](O)[C@H](O)[C@H]2NC(C)=O)NC(=O)CN)O[C@H](CO)[C@H](O)[C@@H]1O	2
O=C(CCCCO[C@@H]1O[C@H](CO)[C@H](O)[C@H](O)[C@H]1O)NCCCNC(=O)CCOCC(COCCC(=O)NCCCNC(=O)CCCCO[C@@H]1O[C@H](CO)[C@H](O)[C@H](O)[C@H]1O)(COCCC(=O)NCCCNC(=O)CCCCO[C@@H]1O[C@H](CO)[C@H](O)[C@H](O)[C@H]1O)NC(=O)CNC(=O)OCc1ccccc1	93
COC(=O)CCCCC(=O)NCC(=O)NC(COCOCCOCCOCCOCCO[C@@H]1O[C@H](CO)[C@H](O)[C@H](O)[C@H]1O)(COCOCCOCCOCCOCCO[C@@H]1O[C@H](CO)[C@H](O)[C@H](O)[C@H]1O)COCOCCOCCOCCOCCO[C@@H]1O[C@H](CO)[C@H](O)[C@H](O)[C@H]1O	200
